Assays:
[1] = tested on: caterpillars of the armyworm (Spodoptera frugiperda); assay: Spodoptera frugiperda test (spray treatment); format: in vivo; settings: maize leaf discs, application rate 500 g/ha
Procedure: Example J Spodoptera Frugiperda Test (Spray Treatment) [table] To produce a suitable preparation of active compound, 1 part by weight of active compound is mixed with the stated amounts of solvent and emulsifier, and the concentrate is diluted with emulsifier-containing water to the desired concentration. Discs of maize leaves (Zea mays) are sprayed with an active compound preparation of the desired concentration and, after drying, populated with caterpillars of the armyworm (Spodoptera frugiperda). After the desired period of time, the effect in % is determined. 100% means that all caterpillars have been killed; 0% means that none of the caterpillars have been killed.

[2] = log P by HPLC on reversed-phase columns (C 18), EEC directive 79/831 Annex V.A8; format: physicochemical; settings: pH 2.7
Procedure: The log P values were measured according to EEC directive 79/831 Annex V.A8 by HPLC (High Performance Liquid Chromatography) on reversed-phase columns (C 18), using the method below:
The determination was carried out in the acidic range at pH 2.7 using the mobile phases 0.1% aqueous formic acid and acetonitrile; linear gradient from 10% acetonitrile to 95% acetonitrile.

O=C1ON=C(c2ccc(OC(F)(F)F)cc2)C1=Cc1cccs1 [I-55]
activity (caterpillars killed) [1]: 80%
log P [2]: 3.80

CC(C)(C)c1ccc(C2=NOC(=O)C2=Cc2cccs2)cc1 [I-29]
activity (caterpillars killed) [1]: 80%
log P [2]: 4.39

CCOc1ccc(C2=NOC(=O)C2=Cc2cccs2)cc1 [I-58]
activity (caterpillars killed) [1]: 80%
log P [2]: 3.41

Cc1ccc(C2=NOC(=O)C2=Cc2cccs2)cc1 [U-2]
activity (caterpillars killed) [1]: 80%
log P [2]: 3.32

COc1ccc(C2=NOC(=O)C2=Cc2ccc(Cl)s2)cc1 [I-43]
activity (caterpillars killed) [1]: 80%
log P [2]: 3.70

Cc1ccc(C2=NOC(=O)C2=Cc2ccc(C)s2)cc1 [U-10]
activity (caterpillars killed) [1]: 80%
log P [2]: 3.67

COc1cccc(C2=NOC(=O)C2=Cc2ccc(C)s2)c1 [U-12]
activity (caterpillars killed) [1]: 80%
log P [2]: 3.34

O=C1ON=C(c2ccc(F)cc2)C1=Cc1cc(Br)cs1 [I-30]
activity (caterpillars killed) [1]: 80%
log P [2]: 3.76

COc1ccc(C2=NOC(=O)C2=Cc2cccs2)cc1 [U-37]
activity (caterpillars killed) [1]: 80%
log P [2]: 2.95

COc1ccc(C2=NOC(=O)C2=Cc2ccc(C)s2)cc1 [U-9]
activity (caterpillars killed) [1]: 80%
log P [2]: 3.28

O=C1ON=C(c2ccc(C(F)(F)F)cc2)C1=Cc1ccc(Cl)s1 [I-71]
log P [2]: 4.37

Cc1ccc(C=C2C(=O)ON=C2c2ccc([N+](=O)[O-])cc2)s1 [U-24]
log P [2]: 3.29

O=C1ON=C(c2ccccc2Cl)C1=Cc1ccc(-c2ccccc2)s1 [I-15]
log P [2]: 4.42

Cc1ccc(C2=NOC(=O)C2=Cc2ccc(Br)s2)cc1 [I-48]
log P [2]: 4.12

Cc1ccc(C=C2C(=O)ON=C2c2ccc(F)cc2)s1 [I-33]
activity (caterpillars killed) [1]: 80%
log P [2]: 3.34

Cc1ccsc1C=C1C(=O)ON=C1c1cc(Br)ccc1Br [I-125]
log P [2]: 4.02

O=C1ON=C(c2ccccc2F)C1=Cc1ccc(Cl)s1 [I-106]
log P [2]: 3.67

COc1cccc(OC)c1C1=NOC(=O)C1=Cc1cccs1 [U-22]
log P [2]: 2.79

O=C1ON=C(c2ccc(Cl)cc2)C1=Cc1cc(Br)c(Br)s1 [I-45]
log P [2]: 4.88

COc1ccc(F)cc1C1=NOC(=O)C1=Cc1sccc1C [U-32]
log P [2]: 3.21

Cc1ccsc1C=C1C(=O)ON=C1c1c(F)cccc1F [I-73]
log P [2]: 3.17

O=C1ON=C(c2cccc(Cl)c2Cl)C1=Cc1cccs1 [I-99]
log P [2]: 3.62

Cc1ccc(C)c(C2=NOC(=O)C2=Cc2sccc2C)c1 [I-124]
log P [2]: 3.81

O=C1ON=C(c2cc(F)ccc2Cl)C1=Cc1ccc([N+](=O)[O-])s1 [I-133]
log P [2]: 3.50

O=C1ON=C(c2ccc(Cl)cc2)C1=Cc1ccc(Cl)s1 [I-46]
log P [2]: 4.17

O=C1ON=C(c2ccc(F)cc2)C1=Cc1cccs1 [I-2]
log P [2]: 3.01

COc1cccc(C2=NOC(=O)C2=Cc2cc(-c3ccccc3)cs2)c1 [I-52]
log P [2]: 4.27

Cc1ccc(C2=NOC(=O)C2=Cc2sc3ccccc3c2C)cc1 [I-142]
log P [2]: 4.51

CC(C)Oc1ccc(C2=NOC(=O)C2=Cc2cccs2)cc1 [I-79]
activity (caterpillars killed) [1]: 80%
log P [2]: 3.73

Cc1ccc(C2=NOC(=O)C2=Cc2cccs2)cc1C [I-92]
log P [2]: 3.73

O=C1ON=C(c2ccc(C(F)(F)F)cc2)C1=Cc1cccs1 [I-56]
activity (caterpillars killed) [1]: 80%
log P [2]: 3.68

O=C1ON=C(c2cc(Cl)cc(Cl)c2)C1=Cc1cccs1 [I-34]
log P [2]: 4.02

O=C1ON=C(c2c(F)cccc2F)C1=Cc1ccc([N+](=O)[O-])s1 [I-76]
log P [2]: 3.25

O=C1ON=C(c2cccc(F)c2)C1=Cc1cccs1 [I-100]
log P [2]: 3.13

O=C1ON=C(c2ccccc2)/C1=C/c1ccc([N+](=O)[O-])s1 [U-41]
log P [2]: 3.27

Cc1c(C=C2C(=O)ON=C2c2ccc(Cl)cc2)sc2ccccc12 [I-144]
log P [2]: 4.63

O=C1ON=C(c2ccccc2)C1=Cc1cc(Br)c(Br)s1 [I-111]
log P [2]: 4.46

Cc1cc(C)cc(C2=NOC(=O)C2=Cc2ccc(C)s2)c1 [I-87]
log P [2]: 4.08

COc1ccc(F)cc1C1=NOC(=O)C1=Cc1cccs1 [U-31]
log P [2]: 3.06

Cc1ccsc1C=C1C(=O)ON=C1c1ccccc1[N+](=O)[O-] [I-135]
log P [2]: 2.85

O=C1ON=C(c2ccccc2OCc2ccccc2)C1=Cc1cccs1 [I-117]
log P [2]: 3.74

Cc1cc(C)cc(C2=NOC(=O)C2=Cc2sccc2C)c1 [I-88]
log P [2]: 4.03

O=C1ON=C(c2cccc(C(F)(F)F)c2)C1=Cc1cccs1 [I-57]
log P [2]: 3.61

Cc1ccccc1C1=NOC(=O)C1=Cc1cccs1 [I-23]
log P [2]: 2.98

COc1ccc(C2=NOC(=O)C2=Cc2sccc2C)c(OC)c1 [U-27]
log P [2]: 2.81

O=C1ON=C(c2ccccc2OCc2ccccc2)C1=Cc1cc(-c2ccccc2)cs1 [I-114]
log P [2]: 4.80

Cc1ccc(C=C2C(=O)ON=C2c2ccccc2OCc2ccccc2)s1 [I-115]
log P [2]: 3.98

O=C1ON=C(c2ccc(Cl)cc2)C1=Cc1cc(-c2ccccc2)cs1 [I-65]
log P [2]: 4.70

O=C1ON=C(c2ccc(Cl)cc2)C1=Cc1cccs1 [I-5]
activity (caterpillars killed) [1]: 80%
log P [2]: 3.44

Cc1cc(C)cc(C2=NOC(=O)C2=Cc2cccs2)c1 [I-89]
log P [2]: 3.78

O=C1ON=C(c2ccc(Cl)cc2)C1=Cc1ccc([N+](=O)[O-])s1 [I-51]
log P [2]: 3.70

Cc1ccc(C2=NOC(=O)C2=Cc2cc(Br)cs2)cc1 [U-7]
log P [2]: 4.09

CC(C)(C)c1ccc(C2=NOC(=O)C2=Cc2ccc([N+](=O)[O-])s2)cc1 [I-53]
log P [2]: 4.52

Cc1ccsc1C=C1C(=O)ON=C1c1cccc(F)c1 [I-102]
log P [2]: 3.31

COc1ccccc1C1=NOC(=O)/C1=C\c1cccs1 [U-39]
activity (caterpillars killed) [1]: 80%
log P [2]: 2.75

O=C1ON=C(c2c(F)cccc2F)C1=Cc1cc(Br)cs1 [I-77]
log P [2]: 3.69

Cc1ccc(C2=NOC(=O)C2=Cc2cc(Br)c(Br)s2)cc1 [I-64]
log P [2]: 4.84

CSc1ccsc1C=C1C(=O)ON=C1c1ccccc1Cl [I-16]
log P [2]: 3.59

O=C1ON=C(c2cc(Cl)ccc2Cl)C1=Cc1cccs1 [I-35]
log P [2]: 3.64

Cc1ccsc1C=C1C(=O)ON=C1c1ccc(F)cc1 [I-32]
activity (caterpillars killed) [1]: 80%
log P [2]: 3.26

O=C1ON=C(c2ccccc2OC(F)(F)F)C1=Cc1cccs1 [I-121]
log P [2]: 3.43

Cc1c(C=C2C(=O)ON=C2c2cc(F)ccc2Cl)sc2ccccc12 [I-146]
log P [2]: 4.32

Cc1cccc(C2=NOC(=O)C2=Cc2sccc2C)c1 [I-86]
log P [2]: 3.60

COc1ccc(C2=NOC(=O)/C2=C\c2cccs2)cc1 [U-38]
activity (caterpillars killed) [1]: 80%
log P [2]: 2.95

O=C1ON=C(c2ccccc2Cl)C1=Cc1cccs1 [I-6]
log P [2]: 3.17

Cc1c(C=C2C(=O)ON=C2c2ccccc2)sc2ccccc12 [I-145]
log P [2]: 4.13

Cc1ccc(C2=NOC(=O)C2=Cc2sccc2Br)cc1 [I-38]
log P [2]: 4.25

CCOc1ccc(C2=NOC(=O)C2=Cc2sccc2C)cc1 [I-82]
log P [2]: 3.61

O=C1ON=C(c2cc(F)ccc2F)C1=Cc1ccc(Cl)s1 [I-139]
log P [2]: 3.84

O=C1ON=C(c2ccccc2[N+](=O)[O-])C1=Cc1ccc(Br)s1 [I-134]
log P [2]: 3.35

O=C1ON=C(c2ccc(F)cc2)C1=Cc1cc(Br)c(Br)s1 [I-63]
log P [2]: 4.45

O=C1ON=C(c2cc(F)ccc2Cl)C1=Cc1cc(Br)cs1 [I-137]
log P [2]: 3.95

O=C1ON=C(c2ccccc2Cl)C1=Cc1ccc([N+](=O)[O-])s1 [I-104]
log P [2]: 3.50

COc1cccc(C2=NOC(=O)C2=Cc2cccs2)c1 [U-6]
log P [2]: 2.90

Cc1ccc(C=C2C(=O)ON=C2c2ccccc2Cl)s1 [I-19]
log P [2]: 3.44

O=C1ON=C(c2cccc(Cl)c2)C1=Cc1cccs1 [I-3]
log P [2]: 3.40

O=C1ON=C(c2cc(F)ccc2Cl)C1=Cc1sccc1Cl [I-136]
log P [2]: 3.95

O=C1ON=C(c2ccccc2)C1=Cc1ccc(Cl)s1 [I-105]
log P [2]: 3.76

Cc1ccc(C)c(C2=NOC(=O)C2=Cc2cccs2)c1 [I-98]
log P [2]: 3.62

O=C1ON=C(c2ccccc2)C1=Cc1cccs1 [U-1]
activity (caterpillars killed) [1]: 80%

COc1cccc(C2=NOC(=O)C2=Cc2cc(Br)cs2)c1 [U-14]
log P [2]: 3.76

O=C1ON=C(c2cc(F)ccc2F)C1=Cc1cccs1 [I-126]
log P [2]: 3.07

COCc1ccsc1C=C1C(=O)ON=C1c1ccccc1Cl [I-20]
log P [2]: 3.20

Reference: patent publication US20120100989A1, “3-Aryl-4-(2-thienylmethylene)isoxazol-5(4H)-ones as Fungicides” (Bayer CropScience AG, priority 2010, published 2012)
